How the values were obtained:
NKT cells = conditions: cited from earlier work
IgE antibody production [1] = conditions: same experiment, mice deleting the Vα14-NKT cells; cited from earlier work
IgE antibody production [2] = conditions: administered to C57BL/6 mice; cited from earlier work
[3] = system: spleen whole cells from Vα14-NKT cell-deficient mouse; assay: Cytokine production in spleen whole cells from Vα14-NKT cell-deficient mouse; format: cell-based, Vα14-NKT cell-deficient mouse (C57BL/6 background); conditions: 100 ng/mL, 2 days
Experimental: (§1) Spleen whole cells at 2×10^5 from C57BL/6 mouse were suspended in 200 μL of 10% fetal calf serum (FCS)-containing RPMI medium to which 100 ng/mL Lipo-(−), Lipo-αGC or α-galactosyl ceramide aqueous solution (α-GalCer) had been added, then the cell suspension was added to a 96-well U bottom culture plate, and cultured in the incubator containing 5% CO2 at 37° C. for 2 days. The levels of IFN-γ, IL-4 and IL-10 produced in the culture supernatant were measured by ELISA (FIG. 7 upper panels). The levels of IFN-γ and IL-4 were equivalent in Lipo-αGC group and αGalCer group, but the level of IL-10 in the Lipo-α group was 5 times higher than that in the α-GalCer group. When the same experiments were performed in the presence of anti-CD1d neutralization antibody (1B1, BD Bioscience PharMingen) at a final concentration of 10 μg/mL or using spleen whole cells from Vα14-NKT cell-deficient mouse (C57BL/6 background), IFN-γ, IL-4 and IL-10 in the culture supernatant were not detected (FIG. 7, lower panels).

spleen whole cells = assay: Cytokine production by Lipo-αGC in spleen whole cells; format: cell-based, C57BL/6 mouse
Experimental: as §1

antibody production [4] = assay: In vivo antibody production system using IL-10-deficient mice; parameters: species or system IL-10-deficient mice with C57BL/6 background; conditions: 2 μg/mouse intraperitoneal 3 days before immunization, day 14
Experimental: Saline, α-GalCer, Lipo-(−) or Lipo-αGC (2 μg/mouse) was intraperitoneally administered in C57BL/6 mice (5 mice/group), after 3 days, which were primarily immunized with DNP-OVA and alum. On the 14th day after the primary immunization, the blood was collected from the orbital venous plexus, and antibody titers of ant-DNP-IgG1, anti-DNP-IgE and anti-DNP-IgG2a in the plasma were measured by ELISA. […] The same experiment was performed using the IL-10-deficient mice with C57BL/6 background.

antibody production [5] = assay: In vivo antibody production system using BDF1 mice; conditions: 2 μg/mouse intraperitoneal, days 0, 14, 55 and 64
Experimental: Saline, α-GalCer, Lipo-(−) or Lipo-αGC (2 μg/mouse) was intraperitoneally administered in BDF1 mice (C57BL/6×DBA/2F1) (5 mice/group), after 3 days (day 0), which were primarily immunized with DNP-OVA and alum, and further the mice was boosted with DNP-OVA alone on the 55th day (day 55) after the primary immunization. On days 0, 14, 55 and 64, the blood was collected from the orbital venous plexus, and antibody titers of ant-DNP-IgE, anti-DNP-IgG1, anti-DNP-IgG2a, and the levels of total IgE, total IgG1 and total IgG2a in the plasma were measured by ELISA.

type I diabetes model = conditions: administered to NOD mice; cited from earlier work
[6] = system: spleen dendritic cells (CD45RB/CD11c); assay: Analysis of dendritic cells in spleen of administered mice by flow cytometry; format: in vivo, BALB/c mice; conditions: 2 μg/mouse intraperitoneal, after 3 days
Experimental: Saline, α-GalCer, Lipo-(−) or Lipo-αGC (2 μg/mouse) was intraperitoneally administered in BALB/c mice, and after 3 days, the spleen was removed. Collagenase D (1 mg/mL, Roche) was injected into the spleen, which was then incubated in the CO2 incubator for 45 minutes. Subsequently, cells were collected from the spleen, suspended in 3 mL of HistoDenz (14.1%, SIGMA-Aldrich), and then the X-VIVO 15 medium (CAMBREX Bio Science Walkerville, Inc.) containing 50 μM 2-mercaptoethanol (2ME) was overlaid thereon. After centrifuging at 1,500 rpm for 5 minutes, the cells in the intermediate layer were collected. The cells were washed with the X-VIVO 15 medium containing 50 μm 2ME and 10% FCS, and suspended in phosphate buffered saline (PBS) containing 0.5% FCS. Biotinylated anti-CD3, -CD11b, -CD19, -CD49b, -Gr-1, -TER-119 and -B220 antibodies (all from BD Bioscience Pharmingen) were added to the cell suspension. The cells were incubated at 10° C. for 20 minutes, then washed once with PBS containing 0.5% FCS, and subsequently streptoavidin (SA)-conjugated magnetic beads (Miltenyi) were added thereto. […] The resulting cells were stained with PE-labeled anti-CD11c antibody (BD Bioscience Pharmingen) and APC-labeled anti-CD45RB antibody (BD Bioscience Pharmingen), and analyzed by flow cytometry. […]

spleen CD4+ T cells = assay: T cell activation ability using BDF1 mice (MTT proliferation of spleen CD4+ T cells); format: cell-based; conditions: 2 μg/mouse intraperitoneal, all DNP-OVA concentrations examined, 48 hours
Experimental: Saline, α-GalCer, Lipo-(−) or Lipo-αGC (2 μg/mouse) was intraperitoneally administered in BDF1 mice, after 3 days, which were primarily immunized with DNP-OVA and alum. After 7 days, the spleen was removed, and CD4^+ T cells were prepared using magnetic microbeads (Miltenyi). Subsequently, antigen presenting cells were prepared by irradiating spleen whole cells from the normal BDF1 mouse with radiation of 20 Gy. The CD4^+ T cells at 2×10^5 and the antigen presenting cells at 2×10^5 pulsed with DNP-OVA suspended in 200 μL of the medium were placed in one well of the 96-well U bottom culture plate, and cultured in the incubator containing 5% CO2 at 37° C. After 48 hours, cell proliferation was assayed by MTT method (Promega #G4000).

spleen CD11c+ DC = assay: In vitro activity of ligand-containing liposome for dendritic cells: cytokine production; format: cell-based, BALB/c or C57BL/6 mouse; conditions: liposome composition 1 μg/mL, 48 hours, ELISA
Experimental: Collagenase D (1 mg/mL, Roche) was injected into spleen from BALB/c or C57BL/6 mouse, which was then incubated in a CO2 incubator for 45 minutes. Subsequently, cells were collected from the spleen, suspended in 3 mL of HistoDenz (14.1%, SIGMA), and then X-VIVO 15 (Takara Bio) containing 50 μM 2-mercaptoethanol (2ME) was overlaid thereon. After centrifuging at 1,500 rpm for 5 minutes, the cells in an intermediate layer were collected and incubated in X-VIVO 15 medium containing 50 μM 2ME, 0.5% fetal calf serum and 20 ng/mL rmGM-CSF (Pharmingen) in the CO2 incubator for one and a half hours. After pipetting gently, the suspended cells were removed, the X-VIVO 15 medium containing 50 μM 2ME, 0.5% fetal calf serum and 20 ng/mL rmGM-CSF (Pharmingen) was added, and the cells were incubated in the CO2 incubator for 18 hours. The suspended cells were collected, and the cells bound to anti-CD11c antibody-magnetic microbeads (Miltenyi) were collected to render spleen CD11c^+ DC. The CD11c^+ DC at 1×10^4 cells were suspended in 200 μL of RPMI medium containing 10% fetal calf serum in a 96-well round bottom microtiter plate, the liposome composition at a final concentration of 1 μg/mL was added thereto, and the plate was incubated in the incubator containing 5% CO^2 at 37° C. After 48 hours, culture supernatants were collected, and levels of IFN-α, IL-10 and IL-12 were measured by ELISA (FIGS. 1 and 2). The levels of IL-10 and IFN-α were high whereas the levels of IL-12 were low in Lipo-β and Lipo-Imq groups. Conversely, in Lipo-β-CpG and Lipo-Imq-CpG groups, the levels of IL-10 and IFNα were low whereas the levels of IL-12 were high. […] In the same evaluation method, the production levels of IL-10 in CD11c^+ DC by Lipo-Imq-βGC were measured.

[7] = system: immunopotentiation and anti-tumor effects; conditions: cited from earlier work
IgE = conditions: patients with atopic asthma; cited from earlier work
IgE, sequence (P01854 1-425 limits assumed): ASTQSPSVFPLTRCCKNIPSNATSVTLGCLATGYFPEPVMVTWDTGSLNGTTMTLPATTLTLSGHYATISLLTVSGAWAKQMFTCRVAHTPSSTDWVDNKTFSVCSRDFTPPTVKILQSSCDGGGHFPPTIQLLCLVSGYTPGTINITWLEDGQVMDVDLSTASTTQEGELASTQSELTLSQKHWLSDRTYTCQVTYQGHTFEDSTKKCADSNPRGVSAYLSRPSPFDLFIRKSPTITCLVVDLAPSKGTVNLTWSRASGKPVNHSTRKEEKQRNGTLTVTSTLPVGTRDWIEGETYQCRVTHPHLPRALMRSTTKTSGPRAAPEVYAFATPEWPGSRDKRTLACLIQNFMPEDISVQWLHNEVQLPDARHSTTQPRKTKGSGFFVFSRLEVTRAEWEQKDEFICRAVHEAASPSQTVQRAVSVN

[8] = in the presence of anti-CD1d neutralization antibody 10 μg/mL

In the case of CCCCCCCCCCCCCCCCCCCCCCCCCC(=O)N[C@@H](CO[C@H]1O[C@H](CO)[C@H](O)[C@H](O)[C@H]1O)[C@H](O)[C@H](O)CCCCCCCCCCCCCC [α-GalCer, α-Galactosyl ceramide], the “cytokine production of both IFN-γ and IL-4” value (NKT cells) is given as “induces”, the “production of IgE antibody” value (IgE antibody production [1]) is given as “not inhibited” and the “production of IgE antibody induced by DNP-OVA and alum” value (IgE antibody production [2]) is given as “inhibited”. The “IFN-γ in the culture supernatant” value [3] was “not detected”, the “IL-4 in the culture supernatant” value [3] was “not detected” and the “IL-10 in the culture supernatant” value [3] was “not detected”. For the same compound, the “level of IFN-γ in culture supernatant, Lipo-αGC group versus αGalCer group” value (spleen whole cells; 100 ng/mL, 2 days, ELISA) was “equivalent”, the “level of IL-4 in culture supernatant, Lipo-αGC group versus αGalCer group” value (spleen whole cells; 100 ng/mL, 2 days, ELISA) was “equivalent” and the “IFN-γ in the culture supernatant” value (spleen whole cells; [8]) was “not detected”. For the same compound, the “IL-4 in the culture supernatant” value (spleen whole cells; [8]) was “not detected”, the “IL-10 in the culture supernatant” value (spleen whole cells; [8]) was “not detected” and the “inhibitory effect on the antibody production” value (antibody production [4]) was “no inhibitory effect”. The “changes of total IgG1, Lipo-αGC group versus α-GalCer or Lipo-(−) group” value (antibody production [5]) was “nearly equivalent”, the “changes of total IgG2a, Lipo-αGC group versus α-GalCer or Lipo-(−) group” value (antibody production [5]) was “nearly equivalent” and the “symptoms in type I diabetes model” value (type I diabetes model) was “symptomatic improvement was observed”. The “number of CD45RBlowCD11chigh cells in the spleen” value [6] was “more than in the mouse administered with Lipo-αGC”, the “ratio of CD45RBhighCD11clow cells versus ratio of CD45RBlowCD11chigh cells” value [6] was “reversed” and the “proliferation of CD4+ T cells in response to DNP-OVA” value (spleen CD4+ T cells) was “highly proliferated”.

For ceramide β-D-galactoside [β-GalCer], the “level of IFN-α in culture supernatant” value (spleen CD11c+ DC) was “not detected or was very low”, the “level of IL-10 in culture supernatant” value (spleen CD11c+ DC) was “not detected or was very low” and the “level of IL-12 in culture supernatant” value (spleen CD11c+ DC) was “not detected or was very low”. For the same compound, the “activity compared with immunopotentiation and anti-tumor effects of α-galactosyl ceramide compound” value [7] was “much lower activity”.

For “rhuMAb-E25: humanized anti-IgE antibody (Genentech Inc.)”, the “effectiveness in clinical trials” value (IgE) is listed as “highly effective”.

In the case of β-glycosyl ceramide, the “activity compared with immunopotentiation and anti-tumor effects of α-galactosyl ceramide compound” value [7] is given as “much lower activity”.

— US9387170B2, “Drug having regulatory cell ligand contained in liposome” (RIKEN, priority 2004, dated 2016)
